This is an account of results in PMC6915999, “Simultaneous hydrolysis with lipase and fermentation of rapeseed cake for iturin A production by Bacillus amyloliquefaciens CX-20” (BMC Biotechnology, 2019).

The data set has as its system lipase. The data set is described as follows: Stability of iturin A to lipase in fermentation broth. It counts as in vitro ADME. As to conditions: RSM (76.52 g/L) fermentation broth after 72 h fermentation; 5 U/mL lipase added vs no lipase; continued at 28 °C, 220 rpm; iturin A concentration at 0, 24, 48 and 72 h by HPLC (210 nm); triplicate; Fig. 5. As for the experimental part: Iturin A was extracted according to a reported method. Briefly, 0.3 mL of the mixed fermentation broth was added into a 2 mL glass tube containing 1.2 mL of methanol, shaken well and incubated for 60 min. The mixture was centrifuged at 12,000 rpm for 20 min, and the supernatant was filtered through a 0.22 μm pore-size hydrophobic polytetrafluoroethylene (PTFE) type disposable syringe. The iturin A concentration was quantified using a Waters 2695 HPLC system equipped with an ACQUITY UPLC BEA C18 column (1.7 μm 2.1 × 100 mm, Waters, USA). A mixture of acetonitrile and 10 mM ammonium acetate (35:65, v/v) was used as the mobile phase at a flow rate of 0.3 mL/min, and the elution was monitored at 210 nm. The concentration of iturin A was analyzed and quantified using an authentic reference standard (Sigma Chemicals, St. Louis, MO, USA). The content of iturin A was measured using triplicate samples.
First, submerged fermentation were performed in 250 mL flasks with 20 mL medium, containing (per liter): 60 g glucose, 1 g K2HPO4·3H2O, 0.5 g MgSO4·7H2O, 0.005 g MnSO4·H2O, and 76.52 g RSM. After 72 h of fermentation, the fermentation broth was divided into two groups. Therein, one group supplemented with 5 U/mL lipase while the other without lipase addition. […] And the concentrations of iturin A at different time (0, 24, 48 and 72 h) were measured.

For the substance iturin A, the “stability of iturin A to excess lipase” value is “almost no effect on the stability of iturin A”.
